Measurements: BindingDB's records for PubMed 1650832 (Pfizer, 1991)

Target: T1, Cysteinyl leukotriene receptor 2 (Cavia porcellus, UniProt Q2NNR4)
T1 sequence (Q2NNR4 whole entry): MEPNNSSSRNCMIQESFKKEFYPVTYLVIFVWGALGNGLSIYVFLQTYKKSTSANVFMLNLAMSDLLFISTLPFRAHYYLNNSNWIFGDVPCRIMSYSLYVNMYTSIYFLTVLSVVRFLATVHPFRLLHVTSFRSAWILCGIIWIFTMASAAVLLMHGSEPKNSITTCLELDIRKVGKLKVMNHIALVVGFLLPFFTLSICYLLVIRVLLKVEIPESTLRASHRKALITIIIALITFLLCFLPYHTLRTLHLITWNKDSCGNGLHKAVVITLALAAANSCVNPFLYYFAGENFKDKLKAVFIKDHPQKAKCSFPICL

| Ki | Compound |
| --- | --- |
| 6.89 nM | COc1cc(C(=O)NS(=O)(=O)c2ccccc2)ccc1Cn1ncc2ccc(NC(=O)OC3CCCC3)cc21 |
| 0.49 nM | CCCCC/C=C\C\C=C/C=C/C=C/[C@@H](SC[C@H](N)C(=O)NCC(=O)O)[C@@H](O)CCCC(=O)O [5S-hydroxy-6R-(S-cysteinylglycinyl)-7E,9E,11E,14Z-eicosatetraenoic acid] |
| 35.5 nM | CCCCC/C=C\C\C=C/C=C/C=C/[C@@H](SC[C@H](N)C(=O)O)[C@@H](O)CCCC(=O)O [(5S-(5R*,6S*(S*),7E,9E,11Z,14Z))-6-((2-Amino-2-carboxyethyl)thio)-5-hydroxy-7,9,11,14-eicosatetraenoic acid] |
| 178 nM | CCCCCC=CCC=CC=CC=CC(SCC(NC(=O)CCC(N)C(=O)O)C(=O)NCC(=O)O)C(O)CCCC(=O)O (centres undefined) [CAS_5283121] |
